Experimental data: patent US12465588B2, “Indole carboxamide derivative and pharmaceutical composition containing same” (KUKJE PHARMA CO., LTD., priority 2019, dated 2025)
Marks after values point to notes of the source that are not given here.

Columns and labels:
[1] = test system: A549 human lung cancer cells; experiment: Measurement of PGE2 in IL-1β-treated A549 human lung cancer cells; format: cell-based; settings: PGE2 production, A549 cell, IL-1β 1 ng/mL, 48 hours
Description: Samples at various concentrations were added at 24 hours after A549 human lung cancer cells were seeded. After 1 hour, IL-1β of 1 ng/mL was added. The cells were cultured for 48 hours and then the culture supernatant was collected. PGE2 of the collected supernatant was measured according to the manufacturer's instructions using a PGE2 EIA kit.

[2] = test system: guinea pig model of osteoarthritis induced by MIA (monosodium iodoacetate); experiment: Hind limb incapacitance test in guinea pig model of osteoarthritis induced by MIA; format: in vivo; settings: for Weight-bearing ratio: GRC27864 12.5 mg/kg oral
Description: An experiment was conducted as follows in order to evaluate the efficacy of the compound according to the present invention for osteoarthritis-induced guinea pigs.
(§1) Specifically, male guinea pigs weighing about 500 g±20% from Coretech Co., Ltd. (Gyeonggi-do, Korea) were acclimated in a laboratory for 8 days, and provided chow and water ad libitum. Temperature (23±3° C.), humidity (55±15%) and light/dark cycle (12 hours, 08:00˜20:00) were controlled automatically.
(§2) Each group consisted of 10 guinea pigs. Guinea pigs were anesthetized with Zoletil 50 (VIRBAC, France, 5 mg/kg) and xylazine (Rompun®, Bayer AG, Germany, 2.5 mg/kg) and depilated at the area around the right knee with Clipper. Using a C-arm (ARCADIS Varic, SIEMENS Co.), it was confirmed that a syringe equipped with a 26 gauge needle was located in the joint cavity. 50 μL of MIA at a concentration of 60 mg/mL was administered into the joint cavity. One week after MIA administration, Compound 9 of the present invention was added to excipients (DMSO (10% by weight), Tween 80 (30% by weight), HMPC (same amount as the drug)), dissolved in water so that the total amount was 100% by weight, and orally administered to the prepared experimental animals at 10 mg/kg and 25 mg/kg, respectively. In the positive control group, GRC27864 was orally administered at 12.5 mg/kg using the same excipient, and only the excipient was orally administered to the control group. The drug was administered for 4 weeks.
(§3) The hind limb incapacitance test was performed for the behavioral evaluation weekly for 4 weeks and the inflammatory factor evaluation was performed by measuring PGE2, IL-1β, and TNF-α in blood after 4 weeks.
The hind limb weight-bearing ratios were obtained by setting up the animals at an inclination of 60 degrees in a plastic room using an incapacitance meter tester, measuring the intensity applied to each hind limb over 10 seconds, and calculating an average. Weight-bearing ratios are 50% for normal cases and up to early 30% for the cases in which a disease is induced.

[3] = test system: PGE2, IL-1β, and TNF-α in blood; experiment: Inflammatory factor evaluation (ELISA) in blood of MIA osteoarthritis guinea pigs; format: in vivo, guinea pig; settings: blood, after 4 weeks, 12.5 mpk oral
Description: as §1, §2, §3
The concentrations of PGE2, IL-1β, and TNF-α in blood were measured using commercially available ELISA kit after 4 weeks. The results are shown in Table 4 below and FIGS. 2 to 4. ***, ** and * represent statistical significance compared to the control group, and are P<0.001, P<0.01, and P<0.05 compared to the control group.

[4] = test system: acetic acid-induced abdominal contraction mouse model; experiment: Anti-pain efficacy test, acetic acid-induced abdominal contraction mouse model; format: in vivo; settings: oral, 1 hour before 0.7% acetic acid i.p.; writhing counted for 10 minutes (FIG. 5)
Description: In order to evaluate the anti-pain efficacy of the compound according to the present invention in abdominal contraction mice, an experiment was conducted as follows.
Specifically, male ICR mice weighing about 20 to 25 g from Orient Bio Co., Ltd. (Gyeonggi-do, Korea) were acclimated in a laboratory for 7 days and provided chow and water ad libitum. Temperature (20±2° C.), humidity (40±60%) and light/dark cycle (12 hours) were controlled automatically.
Based on 10 mice per group, the control group was orally administered with an excipient (200 μL), and the positive control group was orally administered with celecoxib at 25 mg/kg. Compound 9 of the present invention was dissolved in an excipient (10% NMP (N-methyl-2-pyrrolidone), 10% ethanol, 80% polyethylene glycol 400) and administered orally at 10 and 50 mg/kg to each mouse. One hour after drug administration, 0.7% acetic acid was intraperitoneally injected at […] to induce pain. The number of writhing was measured for 10 minutes from 10 minutes after the acetic acid administration.
In this experiment, the less the number of writhing for 10 minutes, the stronger the anti-pain efficacy of the drug was evaluated. The statistical significance compared to the control group was represented as **P<0.01, *P<0.05 compared to the control group.

Structure (SMILES) | IC50 [1] [nM] | further results
CC(C)C(=O)NCc1ccc(Cl)c(C(=O)Nc2ccc3c(c2)cc(C(=O)N[C@H](C)c2ccc(OC(F)(F)F)cc2)n3C)c1 [Compound 59, (R)-5-(2-chloro-5-(isobutyramidomethyl)benzamido)-1-methyl-N-(1-(4-(trifluoromethoxy)phenyl)ethyl)-1H-indole-2-carboxamide] | 9.5 | 
CC(C)C(=O)NCc1ccc(Cl)c(C(=O)Nc2ccc3c(c2)cc(C(=O)N[C@@H](C)c2ccc(C(F)(F)F)cc2)n3C)c1 [Compound 60, (S)-5-(2-chloro-5-(isobutyramidomethyl)benzamido)-1-methyl-N-(1-(4-(trifluoromethyl)phenyl)ethyl)-1H-indole-2-carboxamide] | 30.3 | 
CC(C)C(=O)NCc1ccc(Cl)c(C(=O)Nc2ccc3c(c2)cc(C(=O)N[C@@H](C)c2ccc(OC(F)(F)F)cc2)n3C)c1 [Compound 61, (S)-5-(2-chloro-5-(isobutyramidomethyl)benzamido)-1-methyl-N-(1-(4-(trifluoromethoxy)phenyl)ethyl)-1H-indole-2-carboxamide] | 51.6 | 
CC(C)C(=O)NCc1ccc(Cl)c(C(=O)Nc2ccc3c(c2)cc(C(=O)NCc2ccc(C(C)(C)C)cc2)n3CC(F)(F)F)c1 [Compound 62, N-(4-(tert-butyl)benzyl)-5-(2-chloro-5-(isobutyramidomethyl)benzamido)-1-(2,2,2-trifluoroethyl)-1H-indole-2-carboxamide] | 27.5 | 
CC(C)C(=O)NCc1ccc(Cl)c(C(=O)Nc2ccc3c(c2)cc(C(=O)NCc2ccccc2C(F)(F)F)n3CC(F)(F)F)c1 [Compound 63, 5-(2-chloro-5-(isobutyramidomethyl)benzamido)-1-(2,2,2-trifluoroethyl)-N-(2-(trifluoromethyl)benzyl)-1H-indole-2-carboxamide] | 14.8 | 
CC(C)C(=O)NCc1ccc(Cl)c(C(=O)Nc2ccc3c(c2)cc(C(=O)NCc2ccc(C(F)(F)F)cc2)n3CC(F)(F)F)c1 [Compound 64, 5-(2-chloro-5-(isobutyramidomethyl)benzamido)-1-(2,2,2-trifluoroethyl)-N-(4-(trifluoromethyl)benzyl)-1H-indole-2-carboxamide] | 9.38 | 
CC(C)C(=O)NCc1ccc(Cl)c(C(=O)Nc2ccc3c(c2)cc(C(=O)N[C@@H](C)c2ccc4ccccc4c2)n3CC(F)(F)F)c1 [Compound 65, (S)-5-(2-chloro-5-(isobutyramidomethyl)benzamido)-N-(1-(naphthalen-2-yl)ethyl)-1-(2,2,2-trifluoroethyl)-1H-indole-2-carboxamide] | 2.71 | 
CC(C)C(=O)NCc1ccc(Cl)c(C(=O)Nc2ccc3c(c2)cc(C(=O)N[C@@H](C)c2ccc([N+](=O)[O-])cc2)n3CC(F)(F)F)c1 [Compound 66, (S)-5-(2-chloro-5-(isobutyramidomethyl)benzamido)-N-(1-(4-nitrophenyl)ethyl)-1-(2,2,2-trifluoroethyl)-1H-indole-2-carboxamide] | 43.3 | 
CC(C)C(=O)NCc1ccc(Cl)c(C(=O)Nc2ccc3c(c2)cc(C(=O)N[C@@H](C)c2ccc(Br)cc2)n3CC(F)(F)F)c1 [Compound 67, (S)—N-(1-(4-bromophenyl)ethyl)-5-(2-chloro-5-(isobutyramidomethyl)benzamido)-1-(2,2,2-trifluoroethyl)-1H-indole-2-carboxamide] | 1.8 | 
CC(C)C(=O)NCc1ccc(Cl)c(C(=O)Nc2ccc3c(c2)cc(C(=O)NCc2ccc(F)cc2)n3CC(F)(F)F)c1 [Compound 68, 5-(2-chloro-5-(isobutyramidomethyl)benzamido)-N-(4-fluorobenzyl)-1-(2,2,2-trifluoroethyl)-1H-indole-2-carboxamide] | 8.52 | 
CC(C)C(=O)NCc1ccc(Cl)c(C(=O)Nc2ccc3c(c2)cc(C(=O)NCc2cc(F)cc(C(F)(F)F)c2)n3CC(F)(F)F)c1 [Compound 69, 5-(2-chloro-5-(isobutyramidomethyl)benzamido)-N-(3-fluoro-5-(trifluoromethyl)benzyl)-1-(2,2,2-trifluoroethyl)-1H-indole-2-carboxamide] | 47 | 
CC(C)C(=O)NCc1ccc(Cl)c(C(=O)Nc2ccc3c(c2)cc(C(=O)NCc2cccc(C(F)(F)F)c2)n3CC(F)(F)F)c1 [Compound 70, 5-(2-chloro-5-(isobutyramidomethyl)benzamido)-1-(2,2,2-trifluoroethyl)-N-(3-(trifluoromethyl)benzyl)-1H-indole-2-carboxamide] | 9.65 | 
CC(C)C(=O)NCc1ccc(Cl)c(C(=O)Nc2ccc3c(c2)cc(C(=O)NCc2ccc(Cl)c(F)c2)n3CC(F)(F)F)c1 [Compound 71, N-(4-chloro-3-fluorobenzyl)-5-(2-chloro-5-(isobutyramidomethyl)benzamido)-1-(2,2,2-trifluoroethyl)-1H-indole-2-carboxamide] | 20.1 | 
CC(C)C(=O)NCc1ccc(Cl)c(C(=O)Nc2ccc3c(c2)cc(C(=O)NCc2ccc(OC(F)(F)F)cc2)n3CC(F)(F)F)c1 [Compound 72, 5-(2-chloro-5-(isobutyramidomethyl)benzamido)-1-(2,2,2-trifluoroethyl)-N-(4-(trifluoromethoxy)Benzyl)-1H-indole-2-carboxamide] | 9.38 | 
CC(C)C(=O)NCc1ccc(Cl)c(CNc2ccc3c(c2)cc(C(=O)Nc2ccc(OC(F)(F)F)cc2)n3C)c1 [Compound 73, 5-((2-chloro-5-(isobutyramidomethyl)benzyl)amino)-1-methyl-N-(4-(trifluoromethoxy)phenyl)-1H-indole-2-carboxamide] | 72.3 | 
CC(C)C(=O)NCc1ccc(Cl)c(C(=O)Nc2ccc3[nH]c(C(=O)Nc4ccc(OC(F)(F)F)cc4)cc3c2)c1 [Compound 74, 5-(2-chloro-5-(isobutyramidomethyl)benzamido)-N-(4-(trifluoromethoxy)phenyl)-1H-indole-2-carboxamide] | 5.87 | 
CC(C)C(=O)NCc1ccc(Cl)c(C(=O)Nc2ccc3[nH]c(C(=O)Nc4ccc(C(F)(F)F)cc4)cc3c2)c1 [Compound 75, 5-(2-chloro-5-(isobutyramidomethyl)benzamido)-N-(4-(trifluoromethyl)phenyl)-1H-indole-2-carboxamide] | 6.49 | 
CC(C)C(=O)NCc1ccc(Cl)c(-c2nc3cc(-c4ccc(C(F)(F)F)cc4)ncc3c(=O)[nH]2)c1 [GRC27864, reference compound] | 3.21 | Weight-bearing ratio ([2]; day 0): 40.84 ± 2.68%; Weight-bearing ratio ([2]; day 7): 43.66 ± 4.51%; Weight-bearing ratio ([2]; day 14): 39.85 ± 3.29%; Weight-bearing ratio ([2]; day 21): 37.35 ± 4.43%; Weight-bearing ratio ([2]; day 28): 40.92 ± 3.85%; weight-bearing ratios, course in words ([2]; over 4 weeks of oral administration after MIA): did not worsen after MIA administration but were maintained; IL-1β (ELISA analysis) [3]: 37.408 ± 9.109; PGE2 (ELISA analysis) [3]: 7756.9 ± 1860.5**; TNF-α (ELISA analysis) [3]: 97.110 ± 20.595*
Cc1ccc(-c2cc(C(F)(F)F)nn2-c2ccc(S(N)(=O)=O)cc2)cc1 [celecoxib, reference compound] |  | number of writhing compared to the control group [4]: significantly lower number of writhing compared to the control group
